Reference: patent US3985742A, “Process for preparing 3-hydroxymethyl cephalosporins” (priority 1975, dated 1976)
“Also recorded” adds a separate entry of the source. Counter-ions that a name gives are not always drawn. Like-named read-outs stand apart in the source and are kept apart here.

Columns and labels:
[1] = relative biopotency of blocked intermediate; settings: starting material: disodium salt of 842A
Vibrio percolans MB-1272 = assay: disc-plate bioassay using Vibrio percolans; settings: Comamonas terrigena, MB1272, read-out: disc zone size, 5γ/ml
[2] = system: several strains of bacteria; assay: bioactivity, summary; type: cell-based
Escherichia coli W-MB-60 [3] = assay: disc zone bioassay of derivatives; type: cell-based; settings: WMB60, 100γ/ml, read-out: disc zone size
Excerpt: (§1) Bioassay: the disc zone sizes in the following table are expressed in mm. for 100γ/ml of antibiotic.
(§2) Bioassay: The disc zone sizes in the following table are expressed in mm. for equal concentrations of antibiotic.

[4] = system: Pseudomonas stutzeri MB-1231; assay: disc zone bioassay of derivatives; type: cell-based; settings: Stutzerimonas stutzeri, MB1231, 100γ/ml; read-out: disc zone size
Excerpt: as §1
Bioassay: the disc zone sizes in the following table are expressed in mm. for equal concentrations of antibiotic.
as §2

bacteria = assay: bactericidal action and development of resistance
[5] = isoelectric point and pH stability; type: physicochemical; settings: for stability: pH 1.5
[6] = blood appearance and urinary excretion; type: in vivo, mice; settings: for appearance in blood / excretion: in vivo
gram-positive bacteria = assay: in vitro growth inhibition, summary; type: cell-based; settings: S. aureus, Sarcina lutea, B. subtilis
gram-negative bacteria = assay: in vitro growth inhibition, summary; type: cell-based
[7] = system: gram-negative and gram-positive infections; assay: in vivo protection, summary statements; set-up: species or system mice; settings: for protection against infection, oral: given orally; for in vivo activity / protection spectrum: mouse
Protocol: (§3) Methods: The method employed in this characterization is as follows: Female white Swiss mice, average weight 20-23 grams, were infected intraperitoneally with 3-20 times the number of organisms calculated to be lethal for 50% of the infected control animals (3-20 LD50 doses). At the time of infection and again 6 hours later, therapy was given by the designated route. Controls of the virulence of the culture and the toxicity of the antibiotic for uninfected mice were included in the tests. Seven days after infection the test was considered complete and the amount of the antibiotic (I) that would be required to protect 50% of the infected and treated animals was calculated by the method of Knudsen and Curtis; J. Amer. Stat. Assoc. Vol. 42: page 282 (1947).
The method employed in these studies is the same as described above with regard to the in vivo characterization of 810A.

[8] = system: Alcaligenes viscosus MB-12; assay: bacterial inactivation by washed bacterial cells; settings: 4 hour; assayed on B. subtilis (MB-964); start 4 mg/ml
[9] = system: Alcaligenes faecalis MB-9; assay: bacterial inactivation by washed bacterial cells; settings: 4 hour; assayed on B. subtilis (MB-964); start 4 mg/ml
Proteus morganii 356 = assay: bacterial inactivation; settings: washed bacterial cells, 4 h
Protocol: (§4) These cultures are: Escherichia coli 236, Proteus morganii 251, Proteus morganii 356 and Proteus mirabilis 241. […] In conducting the assay, individual mixtures of the organisms and one of the antibiotics were sampled after four hours incubation and assayed for residual antibiotic activity. The procedure is the same assay method as described above against Alcaligenes faecalis MB-9 and A. viscosus MB-12.

Proteus mirabilis 241 = assay: bacterial inactivation; settings: washed bacterial cells, 4 h
Protocol: as §4

Escherichia coli 236 = assay: bacterial inactivation; settings: 4 hours; assayed on B. subtilis (MB-964)
Protocol: as §4

Proteus morganii 251 = assay: bacterial inactivation; settings: washed bacterial cells, 4 h
Protocol: as §4

[10] = system: cephalosporinases and penicillinase; assay: resistance to enzymatic degradation / bacterial inactivation, summary statements
[11] = toxicity in uninfected mice; settings: mouse, in vivo
Protocol: as §3

[12] = system: Escherichia coli, Chlortetracycline-resistant; assay: microbe, parasite or virus in culture; type: cell-based; settings: read-out: Inhibition Zone Diameter
Alcaligenes faecalis = assay: disc-plate agar diffusion, antibacterial spectrum; type: cell-based; settings: 192 μg/ml, 37 °C, 7 mm = no zone, read-out: Inhibition Zone Diameter
[13] = system: Escherichia coli, Pleocidin-resistant; assay: cross-resistance, disc-plate agar diffusion; type: cell-based; settings: read-out: Inhibition Zone Diameter
[14] = system: Staphylococcus aureus (Streptomycin-Streptothricin-resistant); assay: disc-plate agar diffusion, antibacterial spectrum; type: cell-based; settings: read-out: Inhibition Zone Diameter
Vibrio percolans = assay: disc-plate agar diffusion, antibacterial spectrum; type: cell-based; settings: Comamonas terrigena; 192 μg/ml; 27 °C; 7 mm = no zone; read-out: Inhibition Zone Diameter
Sarcina lutea = assay: disc-plate agar diffusion, antibacterial spectrum; type: cell-based; settings: Micrococcus luteus; 192 μg/ml; 25 °C; 7 mm = no zone; read-out: Inhibition Zone Diameter
[15] = system: Escherichia coli, Streptomycin-resistant; assay: cross-resistance, disc-plate agar diffusion; type: cell-based; settings: read-out: Inhibition Zone Diameter
[16] = system: Escherichia coli, Neomycin-resistant; assay: cross-resistance, disc-plate agar diffusion; type: cell-based; settings: read-out: Inhibition Zone Diameter
Pseudomonas aeruginosa = assay: disc-plate agar diffusion, antibacterial spectrum; type: cell-based; settings: 192 μg/ml, 25 °C, 7 mm = no zone, read-out: Inhibition Zone Diameter
Brucella bronchiseptica = assay: microbe, parasite or virus in culture; type: cell-based; settings: Bordetella bronchiseptica, read-out: Inhibition Zone Diameter
[17] = system: Escherichia coli, Polymyxin-resistant; assay: cross-resistance, disc-plate agar diffusion; type: cell-based; settings: read-out: Inhibition Zone Diameter
Escherichia coli W-MB-60 [18] = assay: special effects spectrum, disc-plate agar diffusion; type: cell-based; settings: WMB60, 192 μg/ml, read-out: Inhibition Zone Diameter
[19] = system: Escherichia coli, Grisein-resistant; assay: cross-resistance, disc-plate agar diffusion; type: cell-based; settings: read-out: Inhibition Zone Diameter
[20] = system: Escherichia coli, Chloramphenicol-resistant; assay: cross-resistance, disc-plate agar diffusion; type: cell-based; settings: read-out: Inhibition Zone Diameter
Streptococcus faecalis = assay: disc-plate agar diffusion, antibacterial spectrum; type: cell-based; settings: Enterococcus faecalis; 192 μg/ml; 37 °C; 7 mm = no zone; read-out: Inhibition Zone Diameter
[21] = system: Escherichia coli, Viomycin-resistant; assay: cross-resistance, disc-plate agar diffusion; type: cell-based; settings: read-out: Inhibition Zone Diameter
Serratia marcescens = assay: disc-plate agar diffusion, antibacterial spectrum; type: cell-based; settings: 192 μg/ml, 25 °C, 7 mm = no zone, read-out: Inhibition Zone Diameter
Staphylococcus aureus = assay: disc-plate agar diffusion, antibacterial spectrum; type: cell-based; settings: 192 μg/ml, 25 °C, 7 mm = no zone, read-out: Inhibition Zone Diameter

CO[C@@]1(NC(=O)CCC[C@@H](NC(=O)OC(C)(C)C)C(=O)O)C(=O)N2C(C(=O)O)=C(COC(N)=O)CS[C@@H]21 [7β-(D-5-N-tertiary-butoxycarbonylamino-5-carboxyvaleramido)-3-(carbamoyloxymethyl)-7-methoxy-3-cephem-4-carboxylic acid]
biopotency relative to starting material [1]: one-tenth the biopotency of the starting material

CO[C@@]1(NC(=O)CCC[C@@H](N)C(=O)O)C(=O)N2C(C(=O)O)=C(CN=[N+]=[N-])CS[C@@H]21 [7β-(D-5-amino-5-carboxyvaleramido)-3-(azidomethyl)-7-methoxy-3-cephem-4-carboxylic acid]
zone of inhibition at 5 µg/mL (Vibrio percolans MB-1272): 16 mm
bioactivity [2]: possessed bioactivity against several strains of bacteria
zone of inhibition at 100 µg/mL (Escherichia coli W-MB-60 [3]): 21 mm
zone of inhibition at 100 µg/mL [4]: 20 mm

CO[C@@]1(NC(=O)CCC[C@@H](N)C(=O)O)C(=O)N2C(C(=O)O)=C(COC(N)=O)CS[C@@H]21 [Example 842A]
bactericidal action (bacteria): bactericidal
development of resistance (bacteria): resistance to it develops slowly
apparent isoelectric point ([5]; amphoteric compound): ~3.5 pH
stability [5]: stable
stability ([5]; listed as Antibiotic 842A): relatively stable
appearance in blood / excretion ([6]; mouse): rapidly excreted in the urine
appearance in blood / excretion ([6]; mouse, listed as Antibiotic 842A): appears rapidly in the blood
dose excreted at 4 h ([6]; mouse, urine, sc, within four hours after administration, read-out: eliminated/recovered in the urine): ~79%
eliminated/recovered in the urine ([6]; within four hours after administration, 240 min, listed as Antibiotic 842A, 240 min): approximately 80%
growth inhibition (gram-positive bacteria): inhibits the growth of the following gram-positive bacteria
activity against Salmonella (gram-negative bacteria): exhibits activity against Salmonella schottmuelleri 3010, S. gallinarum and S. typhosa
growth inhibition (gram-negative bacteria; in vitro, E. coli, P. vulgaris, A. faecalis, B. bronchiseptica, S. gallinarum, V. percolans, X. vesicatoria): inhibits the growth of the following gram-negative bacteria
protection against infection, oral [7]: protects against infections due to Paracolobactrum arizonae 3270, Proteus vulgaris 1810, and Salmonella schottmuelleri 3010
in vivo activity / protection spectrum ([7]; listed as Antibiotic 842A): protects against infection with three species of Proteus, two of Salmonella, one strain of Escherichia coli, two of Klebsiella and also against Paracolobactrum arizonae, Aerobacter aerogenes, Pasteurella multocida and Diplococcus pneumoniae 2400; also recorded: effectiveness against the following gram-negative bacteria: Escherichia coli, Proteus vulgaris, Proteus mirabilis, Proteus morganii, Salmonella schottmuelleri, Klebsiella pneumoniae AD, Klebsiella pneumoniae B, and Paracolobactrum arizonae
Percent Inactivation After Incubation With Washed Bacterial Cells [8]: 54.4%
Percent Inactivation After Incubation With Washed Bacterial Cells [9]: 0%
percent inactivation (Proteus morganii 356): 69%
percent inactivation (Proteus mirabilis 241): 5%
percent inactivation (Escherichia coli 236): 38%
percent inactivation (Proteus morganii 251): 80%
resistance to enzymatic degradation / inactivation ([10]; listed as Antibiotic 842A): greater resistance to cephalosporinases; also recorded: more resistant to enzymatic degradation than cephalosporin C; also recorded: more stable than the latter against certain microorganisms; also recorded: more resistant than cephalosporin C to inactivation by A. faecalis, A. viscosus, Escherichia coli 236, Proteus morganii 251, Proteus morganii 236 and Proteus mirabilis 241

COC(=Cc1ccc(OS(=O)(=O)O)cc1)C(=O)OCC1=C(C(=O)O)N2C(=O)[C@](NC(=O)CCC[C@@H](N)C(=O)O)(OC)[C@H]2SC1 [Ic, 7β-(D-5-amino-5-carboxyvaleramido)-3-(α-methoxy-p-sulfooxycinnamoyloxymethyl)-7-methoxy-3-cephem-4-carboxylic acid]
bactericidal action (bacteria): bactericidal
protection against infection, oral [7]: protects against infections due to Proteus vulgaris
in vivo activity / protection spectrum [7]: when administered intraperitoneally it is effective against a variety of gram-negative and gram-positive infections
toxicity [11]: low order of toxicity in mice
resistance to enzymatic degradation / inactivation ([10]; listed as 7β-(D-5-amino-5-carboxyvaleramido)-3-(α-methyoxy-p-sulfooxycinnamoyloxymethyl)-7): greater resistance to cephalosporinases than cephalothin; also recorded: more resistant to enzymatic degradation than cephalosporin C

CO[C@@]1(NC(=O)CCC[C@@H](N)C(=O)O)C(=O)N2C(C(=O)O)=C(COC(N)=O)CS[C@@H]21 [Sodium Salt]
zone of inhibition at 192 µg/mL [12]: 23 mm
zone of inhibition at 192 µg/mL (Alcaligenes faecalis): 7 mm
zone of inhibition at 192 µg/mL [13]: 17 mm
zone of inhibition at 192 µg/mL [14]: 10 mm
zone of inhibition at 192 µg/mL (Vibrio percolans): 38 mm
zone of inhibition at 192 µg/mL (Sarcina lutea): 9 mm
zone of inhibition at 192 µg/mL [15]: 16 mm
zone of inhibition at 192 µg/mL [16]: 17 mm
zone of inhibition at 192 µg/mL (Pseudomonas aeruginosa): 7 mm
zone of inhibition at 192 µg/mL (Brucella bronchiseptica): 26 mm
zone of inhibition at 192 µg/mL [17]: 7 mm
zone of inhibition at 192 µg/mL (Escherichia coli W-MB-60 [18]; 0.1 M phosphate buffer pH 5, 25 °C): 15 mm
zone of inhibition at 192 µg/mL (Escherichia coli W-MB-60 [18]; 0.1 M phosphate buffer pH 7, 25 °C): 25 mm
zone of inhibition at 192 µg/mL [19]: 16 mm
zone of inhibition at 192 µg/mL [20]: 16 mm
zone of inhibition at 192 µg/mL (Streptococcus faecalis): 7 mm
zone of inhibition at 192 µg/mL [21]: 30 mm
zone of inhibition at 192 µg/mL (Serratia marcescens): 7 mm
zone of inhibition at 192 µg/mL (Staphylococcus aureus): 7 mm
